Measurements: ChEMBL document CHEMBL3046156, “Neoclerodane diterpenoids from Teucrium polium subsp. polium and their antifeedant activity” (2003)

What was measured:
Spodoptera littoralis [1] = assay: Antifeedant activity against Spodoptera littoralis by binary choice bioassay; format: functional
Spodoptera littoralis [2] = assay: Antifeedant activity against Spodoptera littoralis assessed as antifeedant index at 100 ppm by binary choice bioassay; format: functional

CC(=O)OC[C@@]12C(=O)[C@H]3OC(=O)[C@@](C[C@H](OC(C)=O)c4ccoc4)(C1CCC[C@]21CO1)[C@@H]3C (stereo partly specified)
FI50 (Spodoptera littoralis [1]): 230 ppm | AFI (Spodoptera littoralis [2]): 6.9%

CC(=O)OC[C@@]12C(=O)[C@H]3O[C@H](OC(C)=O)[C@](C[C@H](OC(C)=O)c4ccoc4)([C@@H]3C)[C@H]1CCC[C@]21CO1 [ACETYL-AUROPOLIN]
FI50 (Spodoptera littoralis [1]): 90 ppm | AFI (Spodoptera littoralis [2]): 57.8%

CC(=O)OC[C@@]12C(=O)[C@H]3O[C@H](O)[C@](C[C@H](OC(C)=O)c4ccoc4)([C@@H]3C)[C@H]1CCC[C@]21CO1 [AUROPOLIN]
AFI (Spodoptera littoralis [2]): 17.8%

CC(=O)OC[C@@]12C(=O)[C@@H](OC(C)=O)[C@@H](C)[C@]3(C[C@@H](c4ccoc4)OC3=O)[C@H]1CCC[C@]21CO1 [CAPITATIN]
AFI (Spodoptera littoralis [2]): 31%
